Reference: US12441730B2, “PRMT5 inhibitors” (Merck Sharp & Dohme LLC, priority 2019, dated 2025)
Where two headings read alike, the source gives them in different places.

Columns and labels:
[1] = tested on: symmetric dimethylation of arginine (SDMA) of PRMT5 substrates in MCF-7 cells; assay: PRMT5 Cell Target Engagement (TE) Assay; format: cell-based; details: 3 days treatment, SDMA high content imaging
Method in brief: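 Readout is single-cell nuclear symmetric-dimethylarginine immunofluorescence (Alexa488), normalized to DMSO-treated cells. Compounds were applied to MCF-7 cells for 3 days at 37 °C, top concentration 10000 nM in 1:3 steps over ten points; curves fitted with 4-parameter robust fit.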

[2] = target: T1, Full-length (FL)-PRMT5-MEP50 enzyme complex (Homo sapiens, UniProt O14744); assay: PRMT5-MEP50 Enzyme Methylation Assay (Version A); format: biochemical
T1 construct: Full-length (FL)-PRMT5-MEP50 enzyme complex (recombinant proteins from baculovirus-transfected Sf21 cells: FL-PRMT5; MW=73837 kDa and FL-MEP50; MW=38614); made in house; host or cells: baculovirus-transfected Sf21 cells
T1 sequence (O14744 whole entry): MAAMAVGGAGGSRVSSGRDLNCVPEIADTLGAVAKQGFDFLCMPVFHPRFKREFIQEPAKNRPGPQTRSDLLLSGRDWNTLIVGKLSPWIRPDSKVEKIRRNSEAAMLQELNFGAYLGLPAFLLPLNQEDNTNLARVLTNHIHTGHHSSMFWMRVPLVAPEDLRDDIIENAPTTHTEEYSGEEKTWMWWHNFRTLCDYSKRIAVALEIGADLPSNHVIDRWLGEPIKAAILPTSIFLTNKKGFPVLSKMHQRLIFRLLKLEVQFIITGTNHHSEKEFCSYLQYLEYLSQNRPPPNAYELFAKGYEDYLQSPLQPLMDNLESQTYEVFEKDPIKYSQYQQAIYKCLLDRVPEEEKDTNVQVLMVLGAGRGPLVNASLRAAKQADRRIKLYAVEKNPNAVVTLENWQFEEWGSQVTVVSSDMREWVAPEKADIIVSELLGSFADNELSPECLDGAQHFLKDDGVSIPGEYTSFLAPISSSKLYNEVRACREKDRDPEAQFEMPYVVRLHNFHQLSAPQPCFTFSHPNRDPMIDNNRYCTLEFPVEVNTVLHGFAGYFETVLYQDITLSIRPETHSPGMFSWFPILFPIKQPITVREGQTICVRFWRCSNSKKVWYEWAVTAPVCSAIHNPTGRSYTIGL
T1 sequence (Q9BQA1 whole entry partner): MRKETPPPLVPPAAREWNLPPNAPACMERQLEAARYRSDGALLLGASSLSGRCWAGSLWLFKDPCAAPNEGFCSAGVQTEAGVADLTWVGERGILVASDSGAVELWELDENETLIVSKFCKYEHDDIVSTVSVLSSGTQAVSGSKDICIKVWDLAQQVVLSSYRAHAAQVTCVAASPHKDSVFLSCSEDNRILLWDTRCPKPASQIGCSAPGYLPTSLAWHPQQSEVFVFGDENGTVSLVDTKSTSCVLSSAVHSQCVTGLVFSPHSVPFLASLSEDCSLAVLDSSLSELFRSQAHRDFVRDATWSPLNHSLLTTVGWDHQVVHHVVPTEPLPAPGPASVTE
Method in brief: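 Compound was pre-incubated with enzyme for 60 min, then reacted 150 min at 37° C. at final 1.0 nM PRMT5-MEP50, 15 μM SAM and 75 nM biotinylated H4R3(Me1) peptide, in 50 mM Bicine pH 8.0 with 1% DMSO. SAMDI mass-spectrometric readout of Me1→Me2 conversion. EC50 from 4- or 7-parameter regression.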

[3] = second value of 7 parameter biphasic fit, read-out: Enzyme Methylation Assay Version A (EC50 2)
[4] = single EC50 = 4 parameter single site sigmoidal fit, EC50 1 = first value of 7 parameter biphasic fit, read-out: Enzyme Methylation Assay Version A (EC50 or EC50 1)

| Compound | EC50 ([1]; Homo sapiens, MCF7, 72 h) [µM] | EC50 [2, 3] [µM] | EC50 [2, 4] [µM] | EC50 [1] [µM] |
| --- | --- | --- | --- | --- |
| Cc1c(C(=O)N2CC[C@]3(Cc4ccccc4CN3)[C@H](O)C2)nn2cc(Br)cnc12 [Example 62, (6-bromo-3-methylpyrazolo[1,5-a]pyrimidin-2-yl)[(3R,3′R)-3′-hydroxy-1,4-dihydro-1′H,2H-spiro[isoquinoline-3,4′-piperidin]-1′-yl]methanone] | 0.031 | 0.556 | 0.000395 | – |
| Cc1nn(C)c2[nH]c(C(=O)N3CC[C@]4(Cc5ccccc5CN4)[C@H](O)C3)cc(=O)c12 [Example 191, 6-{[(3R,3′R)-3′-hydroxy-1,4-dihydro-1′H,2H-spiro[isoquinoline-3,4′-piperidin]-1′-yl]carbonyl}-1,3-dimethyl-1,7-dihydro-4H-pyrazolo[3,4-b]pyridin-4-one] | ≥ 10 | – | 2.88 | – |
| CCC1Oc2ccc(C(=O)N3CC[C@]4(Cc5ccccc5CN4)[C@H](O)C3)cc2NC1=O (single isomer, unassigned) [Example 105, (2S or 2R)-2-ethyl-6-((3R,3′R)-3′-hydroxy-1,4-dihydro-2H-spiro[isoquinoline-3,4′-piperidine]-1′-carbonyl)-2H-benzo[b][1,4]oxazin-3(4H)-one] | – | 0.146 | 0.000519 | 0.00439 |
| CN1CCC(Oc2nc(Br)cn3cc(C(=O)N4CC[C@]5(Cc6ccccc6CN5)[C@H](O)C4)nc23)C1=O (single isomer, unassigned) [Example 94, (R or S)-3-((6-bromo-2-((3R,3′R)-3′-hydroxy-1,4-dihydro-2H-spiro[isoquinoline-3,4′-piperidine]-1′-carbonyl)imidazo[1,2-a]pyrazin-8-yl)oxy)-1-methylpyrrolidin-2-one] | 0.0197 | 0.316 | 0.000826 | – |
| A diastereomer of [(3R,3′R)-3′- hydroxy-1,4-dihydro-1′H,2H- spiro[isoquinoline-3,4′-piperidin]-1′- yl][6-isopropyl-8-(1- methoxyethyl)imidazo[1,2- a]pyridin-2-yl]methanone [Example 85] | – | 3.06 | 0.0056 | 0.115 |
| Cc1ccc(C(=O)N2CC[C@]3(Cc4ccccc4CN3)[C@H](O)C2)c(Cl)n1 [Example 204, (2-chloro-6-methyl-3-pyridinyl)[(3R,3′R)-3′-hydroxy-1,4-dihydro-1′H,2H-spiro[isoquinoline-3,4′-piperidin]-1′-yl]methanone] | 1.59 | 14.6 | 0.0219 | – |
| N#CC1(c2cc(Br)cn3cc(C(=O)N4CC[C@]5(Cc6ccccc6CN5)[C@H](O)C4)nc23)CC1 [Example 68, 1-(6-bromo-2-{[(3R,3′R)-3′-hydroxy-1,4-dihydro-1′H,2H-spiro[isoquinoline-3,4′-piperidin]-1′-yl]carbonyl}imidazo[1,2-a]pyridin-8-yl)cyclopropanecarbonitrile] | 0.0996 | 1.06 | 0.00117 | – |
| O=C(c1cn2cc(Br)nc(OCC3CCCO3)c2n1)N1CC[C@]2(Cc3ccccc3CN2)[C@H](O)C1 (single isomer, unassigned) [Example 100, (6-bromo-8-(((S or R)-tetrahydrofuran-2-yl)methoxy)imidazo[1,2-a]pyrazin-2-yl)((3R,3′R)-3′-hydroxy-1,4-dihydro-2H-spiro[isoquinoline-3,4′-piperidin]-1′-yl)methanone] | 0.00413 | 0.0606 | 0.000266 | – |
| O=C(c1cc2n(n1)CCS(=O)(=O)C2)N1CC[C@]2(Cc3ccccc3CN2)[C@H](O)C1 [Example 177, (5,5-dioxido-6,7-dihydro-4H-pyrazolo[5,1-c][1,4]thiazin-2-yl)((3R,3′R)-3′-hydroxy-1,4-dihydro-2H-spiro[isoqiuinoline-3,4′-piperidin]-1′-yl)methanone] | ≥ 10 | – | 1.91 | – |
| Cc1cn2cc(C(=O)N3CC[C@]4(Cc5ccccc5CN4)[C@H](O)C3)nc2c(Cl)n1 [Example 252, (8-chloro-6-methylimidazo[1,2-a]pyrazin-2-yl)[(3R,3′R)-3′-hydroxy-1,4-dihydro-1′H,2H-spiro[isoquinoline-3,4′-piperidin]-1′-yl]methanone] | 0.68 | 7.08 | 0.0117 | – |
| O=C(c1cn2cc(C3CC3(F)F)cnc2n1)N1CC[C@]2(Cc3ccccc3CN2)[C@H](O)C1 (single isomer, unassigned) [Example 75] | 0.0275 | 0.112 | 0.00166 | – |
| Cc1ccc(C(=O)N2CC[C@]3(Cc4ccccc4CN3)[C@H](O)C2)c(C2CC2)n1 [Example 199, (2-cyclopropyl-6-methyl-3-pyridinyl)[(3R,3′R)-3′-hydroxy-1,4-dihydro-1′H,2H-spiro[isoquinoline-3,4′-piperidin]-1′-yl]methanone] | 0.503 | 7.24 | 0.00408 | – |
| CN1CC(C2CC2)Cn2cc(C(=O)N3CC[C@]4(Cc5ccccc5CN4)[C@H](O)C3)nc21 (single isomer, unassigned) [Example 139] | – | 0.767 | 0.00819 | 0.212 |
| CO[C@H](C)c1cc(-c2cnn(C)c2C)cn2cc(C(=O)N3CC[C@]4(Cc5ccccc5CN4)[C@H](O)C3)nc12 [Example 245, {6-(1,5-dimethyl-1H-pyrazol-4-yl)-8-[(1R)-1-methoxyethyl]imidazo[1,2-a]pyridin-2-yl}[(3R,3′R)-3′-hydroxy-1,4-dihydro-1′H,2H-spiro[isoquinoline-3,4′-piperidin]-1′-yl]methanone] | 0.00265 | – | 0.00124 | – |
| CC(O)c1cc(C(F)(F)F)cn2cc(C(=O)N3CC[C@]4(Cc5ccccc5CN4)[C@H](O)C3)nc12 (single isomer, unassigned) [Example 109] | – | 0.126 | 0.000276 | 0.00828 |
| O=C(c1cn2cccc(Br)c2n1)N1CC[C@]2(Cc3ccccc3CN2)[C@H](O)C1 [Example 209, (8-bromoimidazo[1,2-a]pyridin-2-yl)[(3R,3′R)-3′-hydroxy-1,4-dihydro-1′H,2H-spiro[isoquinoline-3,4′-piperidin]-1′-yl]methanone] | 0.256 | 3.89 | 0.00374 | – |
| O=C(c1cn2cc(Br)c(C(F)(F)F)nc2n1)N1CC[C@]2(Cc3ccccc3CN2)[C@H](O)C1 [Example 121, [6-bromo-7-(trifluoromethyl)imidazo[1,2-a]pyrimidin-2-yl][(3R,3′R)-3′-hydroxy-1,4-dihydro-1′H,2H-spiro[isoquinoline-3,4′-piperidin]-1′-yl]methanone] | 0.0655 | 3.31 | 0.00488 | – |
| COC(C)c1cc(C(F)F)cn2cc(C(=O)N3CC[C@]4(Cc5ccccc5CN4)[C@H](O)C3)nc12 (single isomer, unassigned) [Example 81] | – | – | 0.00381 | 0.025 |
| O=C(c1ccc(-n2cnnn2)cn1)N1CC[C@]2(Cc3ccccc3CN2)[C@H](O)C1 [Example 192, [(3R,3′R)-3′-hydroxy-1,4-dihydro-1′H,2H-spiro[isoquinoline-3,4′-piperidin]-1′-yl][5-(1H-tetrazol-1-yl)-2-pyridinyl]methanone] | ≥ 10 | 34.7 | 0.112 | – |
